Experimental data: PubChem BioAssay AID1919017 (Molecular Pharmacology Branch, DTP, NCI, 2023)

Tested on: SW1271 complex spheroids with HUVEC/MSC, growth, % test/control
Test: Anticancer human tumor SW1271 cell line growth inhibition [AhR];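 further: spheroids exposed to agents for 7 days before readout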
Conditions: for IC50: curve of first compound; for viability, T/C: stronger effect = lower value
In short: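 Agents were dosed in half-log steps down from roughly clinical Cmax, or from 10 microM where Cmax was unknown, alone and with AhR antagonists. Read-out: percent test/control growth of tumor spheroids containing HUVEC and MSC stromal cells.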

[1] = second compound 0.1 µM, first compound 0.0316 µM
[2] = second compound 0.1 µM, first compound 0.1 µM
[3] = second compound 0.316 µM, first compound 0.0316 µM
[4] = second compound 0.316 µM, first compound 0.1 µM
[5] = second compound 1 µM, first compound 0.0316 µM
[6] = second compound 1 µM, first compound 0.1 µM
[7] = second compound 3.16 µM, first compound 0.0316 µM
[8] = second compound 3.16 µM, first compound 0.1 µM
[9] = second compound 10 µM, first compound 0.0316 µM
[10] = second compound 10 µM, first compound 0.1 µM

Q: With `Cn1ncnc1C1c2n[nH]c(=O)c3cc(F)cc(c23)NC1c1ccc(F)cc1` (stereo not given) + Cc1ccccc1N=Nc1ccc(NC(=O)c2ccnn2C)c(C)c1 as the compound, how does the IC50 (second compound 0.1 µM) read?
A: Its IC50 is over 100 nM.

Q: And the IC50 (second compound 0.316 µM)?
A: Its IC50 is over 100 nM.

Q: What about the IC50 (second compound 1 µM) of the same compound?
A: The IC50 was over 100 nM.

Q: And the IC50 (second compound 3.16 µM)?
A: Its IC50 is over 100 nM.

Q: And the IC50 (second compound 10 µM)?
A: The IC50 was over 100 nM.

Q: And the viability, T/C (second compound 0.1 µM, first compound 0.000316 µM)?
A: The viability, T/C was 118%.

Q: What about the viability, T/C (second compound 0.1 µM, first compound 0.001 µM) of the same compound?
A: The viability, T/C was 120%.

Q: What about the viability, T/C (second compound 0.1 µM, first compound 0.00316 µM) of the same compound?
A: The viability, T/C was 133%.

Q: What about the viability, T/C (second compound 0.1 µM, first compound 0.01 µM) of the same compound?
A: Its viability, T/C is 109%.

Q: And the viability, T/C [1]?
A: Its viability, T/C is 117%.

Q: And the viability, T/C [2]?
A: Its viability, T/C is 116%.

Q: What about the viability, T/C (second compound 0.316 µM, first compound 0.000316 µM) of the same compound?
A: Its viability, T/C is 124%.

Q: What about the viability, T/C (second compound 0.316 µM, first compound 0.001 µM) of the same compound?
A: Its viability, T/C is 127%.

Q: What about the viability, T/C (second compound 0.316 µM, first compound 0.00316 µM) of the same compound?
A: The viability, T/C was 109%.

Q: And the viability, T/C (second compound 0.316 µM, first compound 0.01 µM)?
A: Its viability, T/C is 118%.

Q: What about the viability, T/C [3] of the same compound?
A: The viability, T/C was 121%.

Q: And the viability, T/C [4]?
A: Its viability, T/C is 108%.

Q: What about the viability, T/C (second compound 1 µM, first compound 0.000316 µM) of the same compound?
A: Its viability, T/C is 105%.

Q: What about the viability, T/C (second compound 1 µM, first compound 0.001 µM) of the same compound?
A: Its viability, T/C is 93.8%.

Q: And the viability, T/C (second compound 1 µM, first compound 0.00316 µM)?
A: Its viability, T/C is 117%.

Q: And the viability, T/C (second compound 1 µM, first compound 0.01 µM)?
A: Its viability, T/C is 117%.

Q: And the viability, T/C [5]?
A: Its viability, T/C is 99.3%.

Q: What about the viability, T/C [6] of the same compound?
A: The viability, T/C was 114%.

Q: And the viability, T/C (second compound 3.16 µM, first compound 0.000316 µM)?
A: The viability, T/C was 96.1%.

Q: What about the viability, T/C (second compound 3.16 µM, first compound 0.001 µM) of the same compound?
A: The viability, T/C was 127%.

Q: And the viability, T/C (second compound 3.16 µM, first compound 0.00316 µM)?
A: Its viability, T/C is 124%.

Q: And the viability, T/C (second compound 3.16 µM, first compound 0.01 µM)?
A: Its viability, T/C is 122%.

Q: And the viability, T/C [7]?
A: Its viability, T/C is 97.5%.

Q: What about the viability, T/C [8] of the same compound?
A: The viability, T/C was 131%.

Q: What about the viability, T/C (second compound 10 µM, first compound 0.000316 µM) of the same compound?
A: Its viability, T/C is 118%.

Q: What about the viability, T/C (second compound 10 µM, first compound 0.001 µM) of the same compound?
A: The viability, T/C was 124%.

Q: What about the viability, T/C (second compound 10 µM, first compound 0.00316 µM) of the same compound?
A: The viability, T/C was 110%.

Q: What about the viability, T/C (second compound 10 µM, first compound 0.01 µM) of the same compound?
A: Its viability, T/C is 94.5%.

Q: What about the viability, T/C [9] of the same compound?
A: The viability, T/C was 90.5%.

Q: And the viability, T/C [10]?
A: The viability, T/C was 82.9%.

Q: How did the IC50 (second compound 0.1 µM) turn out when `NS(=O)(=O)OCC1CC(n2ccc3c(NC4CCc5ccccc54)ncnc32)CC1O` (stereo not given) + Cc1ccccc1N=Nc1ccc(NC(=O)c2ccnn2C)c(C)c1 was run?
A: Its IC50 is over 10000 nM.

Q: And the IC50 (second compound 0.316 µM)?
A: The IC50 was over 10000 nM.

Q: What about the IC50 (second compound 1 µM) of the same compound?
A: The IC50 was over 10000 nM.

Q: What about the IC50 (second compound 3.16 µM) of the same compound?
A: The IC50 was over 10000 nM.

Q: What about the IC50 (second compound 10 µM) of the same compound?
A: The IC50 was over 10000 nM.

Q: What about the viability, T/C [1] of the same compound?
A: Its viability, T/C is 129%.

Q: And the viability, T/C [2]?
A: The viability, T/C was 161%.

Q: What about the viability, T/C (second compound 0.1 µM, first compound 0.316 µM) of the same compound?
A: Its viability, T/C is 118%.

Q: And the viability, T/C (second compound 0.1 µM, first compound 1 µM)?
A: The viability, T/C was 101%.

Q: What about the viability, T/C (second compound 0.1 µM, first compound 3.16 µM) of the same compound?
A: The viability, T/C was 91.2%.

Q: And the viability, T/C (second compound 0.1 µM, first compound 10 µM)?
A: The viability, T/C was 82.5%.

Q: And the viability, T/C [3]?
A: The viability, T/C was 135%.

Q: And the viability, T/C [4]?
A: Its viability, T/C is 165%.

Q: And the viability, T/C (second compound 0.316 µM, first compound 0.316 µM)?
A: Its viability, T/C is 112%.

Q: And the viability, T/C (second compound 0.316 µM, first compound 1 µM)?
A: Its viability, T/C is 95.9%.

Q: What about the viability, T/C (second compound 0.316 µM, first compound 3.16 µM) of the same compound?
A: The viability, T/C was 103%.

Q: What about the viability, T/C (second compound 0.316 µM, first compound 10 µM) of the same compound?
A: The viability, T/C was 86.3%.

Q: What about the viability, T/C [5] of the same compound?
A: The viability, T/C was 157%.

Q: And the viability, T/C [6]?
A: Its viability, T/C is 132%.

Q: And the viability, T/C (second compound 1 µM, first compound 0.316 µM)?
A: The viability, T/C was 151%.

Q: And the viability, T/C (second compound 1 µM, first compound 1 µM)?
A: The viability, T/C was 88.2%.

Q: And the viability, T/C (second compound 1 µM, first compound 3.16 µM)?
A: Its viability, T/C is 80.1%.

Q: And the viability, T/C (second compound 1 µM, first compound 10 µM)?
A: Its viability, T/C is 78.5%.

Q: What about the viability, T/C [7] of the same compound?
A: The viability, T/C was 157%.

Q: And the viability, T/C [8]?
A: Its viability, T/C is 206%.

Q: What about the viability, T/C (second compound 3.16 µM, first compound 0.316 µM) of the same compound?
A: The viability, T/C was 111%.

Q: What about the viability, T/C (second compound 3.16 µM, first compound 1 µM) of the same compound?
A: Its viability, T/C is 89.7%.

Q: What about the viability, T/C (second compound 3.16 µM, first compound 3.16 µM) of the same compound?
A: The viability, T/C was 89.1%.

Q: And the viability, T/C (second compound 3.16 µM, first compound 10 µM)?
A: Its viability, T/C is 83.2%.

Q: And the viability, T/C [9]?
A: The viability, T/C was 128%.

Q: And the viability, T/C [10]?
A: The viability, T/C was 132%.

Q: And the viability, T/C (second compound 10 µM, first compound 0.316 µM)?
A: The viability, T/C was 123%.

Q: What about the viability, T/C (second compound 10 µM, first compound 1 µM) of the same compound?
A: The viability, T/C was 94%.

Q: And the viability, T/C (second compound 10 µM, first compound 3.16 µM)?
A: Its viability, T/C is 77.4%.

Q: And the viability, T/C (second compound 10 µM, first compound 10 µM)?
A: The viability, T/C was 84.9%.

Q: What does the source list for `Nc1ncn(C2CC(O)C(CO)S2)c(=O)n1` (stereo not given) + Cc1ccccc1N=Nc1ccc(NC(=O)c2ccnn2C)c(C)c1?
A: IC50 (second compound 0.1 µM): > 300 nM; IC50 (second compound 0.316 µM): > 300 nM; IC50 (second compound 1 µM): > 300 nM; IC50 (second compound 3.16 µM): > 300 nM; IC50 (second compound 10 µM): > 300 nM; viability, T/C (second compound 0.1 µM, first compound 0.000949 µM): 120%; viability, T/C (second compound 0.1 µM, first compound 0.003 µM): 102%; viability, T/C (second compound 0.1 µM, first compound 0.00949 µM): 87.8%; viability, T/C (second compound 0.1 µM, first compound 0.03 µM): 102%; viability, T/C (second compound 0.1 µM, first compound 0.0949 µM): 95.4%; viability, T/C (second compound 0.1 µM, first compound 0.3 µM): 79.5%; viability, T/C (second compound 0.316 µM, first compound 0.000949 µM): 101%; viability, T/C (second compound 0.316 µM, first compound 0.003 µM): 94.4%; viability, T/C (second compound 0.316 µM, first compound 0.00949 µM): 83.6%; viability, T/C (second compound 0.316 µM, first compound 0.03 µM): 89.2%; viability, T/C (second compound 0.316 µM, first compound 0.0949 µM): 89.9%; viability, T/C (second compound 0.316 µM, first compound 0.3 µM): 78.6%; viability, T/C (second compound 1 µM, first compound 0.000949 µM): 87.9%; viability, T/C (second compound 1 µM, first compound 0.003 µM): 96%; viability, T/C (second compound 1 µM, first compound 0.00949 µM): 109%; viability, T/C (second compound 1 µM, first compound 0.03 µM): 94.6%; viability, T/C (second compound 1 µM, first compound 0.0949 µM): 76.9%; viability, T/C (second compound 1 µM, first compound 0.3 µM): 99.9%; viability, T/C (second compound 3.16 µM, first compound 0.000949 µM): 81.2%; viability, T/C (second compound 3.16 µM, first compound 0.003 µM): 115%; viability, T/C (second compound 3.16 µM, first compound 0.00949 µM): 116%; viability, T/C (second compound 3.16 µM, first compound 0.03 µM): 88.7%; viability, T/C (second compound 3.16 µM, first compound 0.0949 µM): 85.4%; viability, T/C (second compound 3.16 µM, first compound 0.3 µM): 105%; viability, T/C (second compound 10 µM, first compound 0.000949 µM): 103%; viability, T/C (second compound 10 µM, first compound 0.003 µM): 95.3%; viability, T/C (second compound 10 µM, first compound 0.00949 µM): 86%; viability, T/C (second compound 10 µM, first compound 0.03 µM): 92.7%; viability, T/C (second compound 10 µM, first compound 0.0949 µM): 85%; viability, T/C (second compound 10 µM, first compound 0.3 µM): 77.2%
